The test system of one assay is E. coli MG1655. The format is cell-based, Escherichia coli.
In a further assay the test system is Dxr. Conditions: cited from earlier work.
In another assay the target is Yp Dxr (Yersinia pestis, UniProt Q8ZH62). Type of assay: biochemical.
A further assay concerns Yp. The format is cell-based, Yersinia pestis.
A further assay addresses T1, Mtb Dxr (Mycobacterium tuberculosis, UniProt P9WNS1).
T1 sequence (P9WNS1 1-413): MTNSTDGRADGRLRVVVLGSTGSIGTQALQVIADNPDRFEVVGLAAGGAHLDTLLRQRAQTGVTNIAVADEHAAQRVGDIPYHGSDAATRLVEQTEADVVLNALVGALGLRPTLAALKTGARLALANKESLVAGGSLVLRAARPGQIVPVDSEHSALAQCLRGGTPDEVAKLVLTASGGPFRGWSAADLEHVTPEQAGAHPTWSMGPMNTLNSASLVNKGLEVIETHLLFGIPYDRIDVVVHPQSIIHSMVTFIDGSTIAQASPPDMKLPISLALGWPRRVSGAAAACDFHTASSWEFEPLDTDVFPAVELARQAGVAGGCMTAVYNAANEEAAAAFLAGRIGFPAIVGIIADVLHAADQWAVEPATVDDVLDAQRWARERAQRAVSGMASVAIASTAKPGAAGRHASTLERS
Type of assay: biochemical. The conditions noted are these: for IC50: read-out: Mtb Dxr IC50.

The test system of a further assay is M. tuberculosis H37Rv. Kind of assay: microbe, parasite or virus in culture. Type of assay: cell-based, Mycobacterium tuberculosis.

Each structure is given as a SMILES string.

Sequence of Yp Dxr (Q8ZH62 whole entry, looked up): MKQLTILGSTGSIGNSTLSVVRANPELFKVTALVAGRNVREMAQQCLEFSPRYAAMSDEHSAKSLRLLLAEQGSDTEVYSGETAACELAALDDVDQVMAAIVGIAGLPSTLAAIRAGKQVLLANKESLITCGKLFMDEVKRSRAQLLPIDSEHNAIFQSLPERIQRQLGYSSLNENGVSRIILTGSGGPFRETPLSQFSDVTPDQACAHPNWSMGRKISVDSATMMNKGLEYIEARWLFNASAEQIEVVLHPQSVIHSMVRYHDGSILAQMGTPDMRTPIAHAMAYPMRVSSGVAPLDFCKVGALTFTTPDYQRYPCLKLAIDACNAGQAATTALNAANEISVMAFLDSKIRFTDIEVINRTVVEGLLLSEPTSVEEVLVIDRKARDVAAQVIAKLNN

With `CC(=O)N(O)CCCP(=O)(O)O` [Compound 2, FR900098], the “growth inhibition activity (in words)” value in the assay with E. coli MG1655 and in the assay on Yp was “potently inhibits bacterial propagation in a dose-dependent manner” in each case. Further, the mechanism of inhibition entry with Dxr is “competitive inhibitors with respect to DXP and uncompetitive relative to NADPH”. Besides, the IC50 at Yp Dxr (read-out: Yp Dxr IC50) was determined as 230 nM; on Mtb Dxr it was 2910 nM. In the assay with M. tuberculosis H37Rv, the “M. tuberculosis MIC” value is greater than 500 µg/mL.

Regarding `O=C(CCCc1ccccc1)N(O)CCCP(=O)([O-])O.[Na+]` [Compound 8h, Sodium hydrogen-3-(N-hydroxy-4-phenylbutanamido)propyl phosphonate], in the assay with Dxr, the binding modality result is on record as “competitively with DXP but noncompetitively with NADPH”. Besides, on Yp Dxr, the “inhibition of Yp Dxr (in words)” value is listed as “most active” and the “percent remaining enzyme activity at 100 µM (Yp Dxr)” value was “(34) percent”. Besides, on Mtb Dxr, the “inhibition of Mtb Dxr (in words)” value was “greatest inhibition” and the IC50 amounted to 17800 nM. The “M. tuberculosis MIC” value with M. tuberculosis H37Rv is given as greater than 200 µg/mL.

What is called IC50 is the concentration that gives 50% inhibition.

The values above are taken from paper PMC5266543 (ACS infectious diseases, 2016).
